Reference: the NIST ThermoML archive (doi:10.1021/acs.jced.8b01204)

Assay: xn = mol fraction of the nth substance listed
Conditions: 101 kPa, Liquid; for speed of sound: Single path-length method; for mass density: Vibrating tube method

C[N+]1(CC2CO2)CCCC1=O.O=C([O-])c1ccccc1O (stereo not given) [1-methyl-1-(oxiran-2-ylmethyl)-2-oxopyrrolidinium salicylate] + CCC(=O)O
Conditions | mass density, 293.15 K [kg/m3] | mass density, 298.15 K [kg/m3] | mass density, 303.15 K [kg/m3] | mass density, 308.15 K [kg/m3] | mass density, 313.15 K [kg/m3] | speed of sound, 293.15 K [m/s] | speed of sound, 298.15 K [m/s] | speed of sound, 303.15 K [m/s] | speed of sound, 308.15 K [m/s] | speed of sound, 313.15 K [m/s]
x1 = 0.0303 | 1018.7 | 1013.6 | 1008.2 | 1003.2 | 998 | 1211.9 | 1193.4 | 1175 | 1156.8 | 1138.9
x1 = 0.0701 | 1046.2 | 1041.2 | 1036.2 | 1031.3 | 1026.3 | 1266.7 | 1248.7 | 1230.8 | 1213.2 | 1195.8
x1 = 0.1006 | 1063.4 | 1058.6 | 1053.7 | 1048.9 | 1044 | 1303.5 | 1286 | 1268.5 | 1251.1 | 1233.7
x1 = 0.2 | 1105.7 | 1101.9 | 1096.5 | 1091.8 | 1087.2 | 1400.3 | 1383.3 | 1366.1 | 1349.2 | 1332.5
x1 = 0.3007 | 1133.9 | 1129.4 | 1124.9 | 1120.4 | 1115.9 | 1465.8 | 1449 | 1432 | 1415.3 | 1398.7
x1 = 0.4009 | 1153.6 | 1149.2 | 1144.8 | 1140.3 | 1135.9 | 1505.7 | 1488.9 | 1472 | 1455.4 | 1439
x1 = 0.501 | 1168.6 | 1164.2 | 1159.8 | 1155.4 | 1151 | 1538.8 | 1521.9 | 1505 | 1488.4 | 1472
x1 = 0.6002 | 1180.6 | 1176.3 | 1172 | 1167.6 | 1163.3 | 1565.4 | 1547.8 | 1530.9 | 1514.3 | 1497.9
x1 = 0.7002 | 1190.5 | 1186.2 | 1181.9 | 1177.6 | 1173.3 | 1584.5 | 1566.8 | 1549.5 | 1532.7 | 1516.3
x1 = 0.8005 | 1198.3 | 1194.1 | 1189.8 | 1185.5 | 1181.2 | 1599.7 | 1581.7 | 1564.2 | 1547.3 | 1530.8
x1 = 0.901 | 1204.6 | 1200.4 | 1196.1 | 1191.8 | 1187.5 | 1615.4 | 1596.4 | 1578.6 | 1561.5 | 1544.9
x1 = 1 | 1209.8 | 1205.5 | 1201.3 | 1197.2 | 1193 | 1634.2 | 1614.5 | 1595.7 | 1577.6 | 1559.5
